Test results published in publication PMC7023435 (Pharmaceutics, 2020).

Legend:
epithelial integrity = conditions: cited from earlier work
Source text: The effect of local high PE concentrations on the monolayer under the opening of C10-releasing MCs has previously been visualized by laser-scanning confocal microscopy of cell monolayers cultured on Transwell® filters. Furthermore, we have previously shown that the monolayers, u ...

Caco-2 cell monolayers = assay: In vitro insulin permeation and TEER across Caco-2 cell monolayers, PE:insulin in microcontainers or solution; format: in vitro ADME; conditions: Caco-2, apical to basolateral, 2 h, 37 °C, 75 rpm, hHBSS pH 7.4 with 0.05% BSA, PE:insulin 1:4 w/w, RP-HPLC UV 214 nm, n = 3 passages in triplicate
Protocol: Cell culturing was done in DMEM supplemented with FBS (10%, v/v), L-glutamine (2 mM), penicillin (100 U/mL), streptomycin (100 µg/mL) and NEAA (1%, v/v) for 21–23 days at 37 °C and 5% CO2 with a final density of 1 × 10^5 cells/cm^2. […] The transepithelial electrical resistance (TEER) of the Caco-2 cell monolayers was measured upon equilibration to room temperature using an Epithelial Volt/Ohm Meter (World Precision Instruments, Sarasota, FL, USA) with Endohm™ chambers. First recording took place in culture medium prior to the permeation study; after which, the monolayers were washed twice with permeation buffer consisting of 10 mM HEPES in HBSS (hHBSS) supplied with BSA (0.05%, w/v), NaHCO3 (0.38%, w/v) and adjusted to pH 7.4. […] Each of the three different studies per PE was carried out in triplicates and across three passages with all studies conducted within eight passages. […] The MC chips were then removed from the Caco-2 cell monolayers, followed by washing twice with hHBSS before TEER was recorded again.
In vitro permeation samples without proteolysis were separated on a Kinetex XB-C18 column (100 × 4.6 mm, 5 µm, 100 Å; Phenomenex, Torrance, CA, USA), with two mobile phases of A: 0.1% (v/v) TFA in water and B: 0.1% (v/v) TFA in acetonitrile. […]

[1] = tested on: porcine intestinal tissue; assay: Ex vivo intestinal permeation study in Franz diffusion cells; format: in vitro ADME, pig; conditions: Franz diffusion cell, hDMEM, 37 °C, 3 h, MC chip on mucosa, insulin by ELISA, n = 3
Protocol: The jejunum and ileum were collected from an anaesthetized pig (approx. 40 kg) immediately before it was euthanized. […] Intestinal segments of 10–20 cm were prepared and stored at −20 °C until the day of the permeation study. Prior to the study, a segment was thawed in 10 mM HEPES-buffered DMEM (hDMEM) and longitudinally cut open. Luminal contents were washed away with hDMEM and the muscularis was removed using tweezers before the mucosa was cut into 4 × 4 cm pieces and placed in Franz diffusion cells. Each receptor compartment was filled with 7 mL of hDMEM facing the serosal side of the intestinal tissue. The donor side, facing the mucosa, was filled with 1.5 mL FD70 solution (100 µg/mL) in hDMEM to imitate the inclusion of a pathogen. Permeation was initiated by placing a chip of loaded MCs directly on top with the openings facing the mucosa.

[2] = target: α-chymotrypsin from bovine pancreas (Bos taurus, UniProt P00766); conditions: insulin 600 µg/mL, FaSSIF, 37 °C, RP-HPLC
Protocol: The compatibility of integrating proteolysis in the in vitro permeation setup was then tested by measuring TEER and viability as the metabolic activity of Caco-2 cell monolayers after 2 h of apical exposure to different concentrations of α-chymotrypsin (0, 10, 50 and 100 µg/mL) in hHBSS. Viability was determined after washing the cells with fresh hHBSS followed by the apical addition of 1.5 mL freshly made MTS (240 µg/mL) and PMS solution (2.4 µg/mL) in hHBSS before incubation in dark conditions for 1.5 h with 75 rpm orbital shaking at 37 °C. The absorbance at 492 nm of three 100 µL samples from each well was measured in a 96-well plate using a Multiskan MS 352 Microplate Reader (Labsystems, Helsinki, Finland).

[3] = oral dosage form of insulin using C10, high doses required; cited from earlier work
[4] = tested on: Caco-2 cell monolayers with apical α-chymotrypsin; assay: Combined in vitro permeation and proteolysis; conditions: absence of protease inhibition (insulin:SDS:MCC MCs), apical α-chymotrypsin 0.49 U/mL, 37 °C, RP-HPLC
Protocol: Cell culturing was done in DMEM supplemented with FBS (10%, v/v), L-glutamine (2 mM), penicillin (100 U/mL), streptomycin (100 µg/mL) and NEAA (1%, v/v) for 21–23 days at 37 °C and 5% CO2 with a final density of 1 × 10^5 cells/cm^2. […] The transepithelial electrical resistance (TEER) of the Caco-2 cell monolayers was measured upon equilibration to room temperature using an Epithelial Volt/Ohm Meter (World Precision Instruments, Sarasota, FL, USA) with Endohm™ chambers. […] The MC chips were then removed from the Caco-2 cell monolayers, followed by washing twice with hHBSS before TEER was recorded again.
The compatibility of integrating proteolysis in the in vitro permeation setup was then tested by measuring TEER and viability as the metabolic activity of Caco-2 cell monolayers after 2 h of apical exposure to different concentrations of α-chymotrypsin (0, 10, 50 and 100 µg/mL) in hHBSS. Viability was determined after washing the cells with fresh hHBSS followed by the apical addition of 1.5 mL freshly made MTS (240 µg/mL) and PMS solution (2.4 µg/mL) in hHBSS before incubation in dark conditions for 1.5 h with 75 rpm orbital shaking at 37 °C. The absorbance at 492 nm of three 100 µL samples from each well was measured in a 96-well plate using a Multiskan MS 352 Microplate Reader (Labsystems, Helsinki, Finland). […]

[5] = in vivo; cited from earlier work
Source text: For overcoming the absorption barrier, PEs have been developed and studied both for paracellular enhancement by tight junction opening and transcellular e ...

For CCCCCCCCCC(=O)[O-].[Na+] [C10, n-Capric acid sodium salt], the “concentration inducing in vitro permeation” value (epithelial integrity; in the order) is listed as ~10 mM and the “potency as PE based on the insulin permeation rates” value (Caco-2 cell monolayers) is listed as “equal in vitro potency to C12-carnitine”.
For CCCCCCCCCCCCOS(=O)(=O)[O-].[Na+] [SDS, sodium dodecyl sulfate], the “insulin permeation across porcine intestinal tissue” value [1] is given as “significantly higher insulin permeation”, the “barrier integrity after exposure” value (epithelial integrity; 2 h exposure to 0.40 mM SDS) is given as “irreversible deterioration of barrier integrity” and the “SDS concentration resulting in immediate loss of epithelial integrity” value (epithelial integrity; concentrations as low as) is given as 0.40 mM. The “potency as PE based on the insulin permeation rates” value (Caco-2 cell monolayers) was “significantly more potent PE when compared to C10 and C12-carnitine”.
For insulin (human recombinant), the native insulin remaining ([2]; after 45–60 min, without STI, α-chymotrypsin 0.49 U/mL) is listed as “approximately 20%”, the “native insulin degraded after 2 h” value ([2]; α-chymotrypsin 10 µg/mL (0.49 U/mL), 12 µg/mL STI, n = 3) is listed as “more than 90%” and the glycemic control [3] is listed as “glycemic control similar to subcutaneously administered insulin”. For the same compound, the “insulin digested on the apical side after 2 h” value [4] was “Almost all”.
For semaglutide, the oral bioavailability [5] is listed as 0.1–1.2%.
